The record followed here is US12396961B2, “Compounds and compositions for intracellular delivery of agents” (ModernaTX, Inc., priority 2015, dated 2025).

Data set [1] is described as follows: Particle size and polydispersity index (Zetasizer Nano ZS). Format: physicochemical. An excerpt: Nanoparticle compositions may be characterized by a variety of methods. For example, microscopy (e.g., transmission electron microscopy or scanning electron microscopy) may be used to examine the morphology and size distribution of a nanoparticle composition. Dynamic light scattering or potentiometry (e.g., potentiometric titrations) may be used to measure zeta potentials. Dynamic light scattering may also be utilized to determine particle sizes. Instruments such as the Zetasizer Nano ZS (Malvern Instruments Ltd, Malvern, Worcestershire, UK) may also be used to measure multiple characteristics of a nanoparticle composition, such as particle size, polydispersity index, and zeta potential.
A Zetasizer Nano ZS (Malvern Instruments Ltd, Malvern, Worcestershire, UK) can be used to determine the particle size, the polydispersity index (PDI) and the zeta potential of the nanoparticle compositions in 1×PBS in determining particle size and 15 mM PBS in determining zeta potential.

The test system of data set [2] is luciferase (Luc) mRNA expression. Put plainly: Luc expression (AUC) in CD-1 mice relative to MC3. Format: in vivo. The note with it: for Lipid/MC3 Luc CD-1 (mice): Luc expression relative to MC3, CD-1 mice; for Liver/Spleen Ratio / Lipid/MC3 AUC: Table 7c; for Lipid/MC3 AUC: AUC relative to MC3. The protocol: FIG. 15 is a graph summarizing luciferase expression levels at 6 h after administration of nanoparticle compositions containing compounds of the disclosure to CD-1 mice at a dose of 0.5 mpk. Total light flux values were acquired via body luminescent imaging (BLI) 6 h after administration. In this Figure, the numbers 1-7 and 10 refer to the compositions containing Compounds 4-10 and MC3 respectively.
In contrast, hEPO expression in rats induced by administration of nanoparticle composition including compound according to one of formulae (I), (Ia1)-(Ia6), (Ib), (II), (IIa), (III), and (IIIa) was substantially lower than that measured for MC3. […] Table 7c and 7d show additional protein expressions and clearance data from compositions with various compounds disclosed herein as compared to with MC3.

Setting [3] is: Table 1, DOPE 40:20:38.5:1.5, Luc mRNA.

The compound `CCCCCCCCCN(CCCCCCCCC)CCN(CCCCCCCCC)CCC1CCN(C(=O)CN(CCCCCCCCC)CCCCCCCCC)CC1` [Compound 50, 2-(Dinonylamino)-1-(4-(2-((2-(dinonylamino)ethyl)(nonyl)amino)ethyl)piperidin-1-yl)ethan-1-one] registered a PDI in data set [1] (setting [3]) of 0.190. For the same compound, the “Lipid/MC3 Luc CD-1 (mice)” value in data set [2] is recorded as 0.01.
`CCCCCCCCCN(CCCCCCCCC)CCN(CCCCCCCCC)CC(=O)N1CCN(C(=O)CN(CCCCCCCCC)CCCCCC(=O)OCCC)CC1` [Compound 54, Propyl 6-((2-(4-(N-(2-(dinonylamino)ethyl)-N-nonylglycyl)piperazin-1-yl)-2-oxoethyl)(nonyl)amino)hexanoate]: in data set [2], the “Liver/Spleen Ratio” value amounted to 32 and the “Lipid/MC3 AUC” value stood at 0.13.
In data set [1] (setting [3]), `CCCCCCCCCN(CCCCCCCCC)CCN(CCCCCCCCC)CC(=O)N1CCN(C(=O)CN(CCCCCCCCC)CCCCCCCC(=O)OC)CC1` [Compound 44, Methyl 8-((2-(4-(N-(2-(dinonylamino)ethyl)-N-nonylglycyl)piperazin-1-yl)-2-oxoethyl)(nonyl)amino)octanoate] returned a PDI of 0.190. The “Lipid/MC3 Luc CD-1 (mice)” value in data set [2] turned out to be 0.82.
For the compound `CCCCCCCCCN(CCCCCC(=O)OCCC)CCC1CCN(C(=O)CN(CCCCCCCCC)CCN(CCCCCCCCC)CCCCCCCCC)CC1` [Compound 59, Propyl 6-((2-(1-(N-(2-(dinonylamino)ethyl)-N-nonylglycyl)piperidin-4-yl)ethyl)(nonyl)amino)hexanoate], in data set [2], the “Liver/Spleen Ratio” value was 5 and the “Lipid/MC3 AUC” value worked out at 0.84.
The matching figures for `CCCCCCCCCN(CCCCC(=O)OCCCC)CCC1CCN(C(=O)CN(CCCCCCCCC)CCN(CCCCCCCCC)CCCCCCCCC)CC1` [Compound 60, Butyl 5-((2-(1-(N-(2-(dinonylamino)ethyl)-N-nonylglycyl)piperidin-4-yl)ethyl)(nonyl)amino)pentanoate]: 15 and 2.00.
The matching figures for `CCCCCCCCCN(CCCC(=O)OCCCCC)CCN(CCCCCCCCC)CC(=O)N1CCN(C(=O)CN(CCCCCCCCC)CCCC(=O)OCCCCC)CC1` [Compound 71, Pentyl 4-(nonyl(2-(4-(N-nonyl-N-(2-(nonyl(4-oxo-4-(pentyloxy)butyl)amino)ethyl)glycyl)piperazin-1-yl)-2-oxoethyl)amino)butanoate]: 25 and 1.25.
On to `CCCCCCCCCN(CCCCCCCCC)CCN(CCCCCCCCC)CC(=O)N1CC2CC1CN2C(=O)CN(CCCCCCCCC)CCCCCCCCC` (stereo not shown) [Compound 42, 2-(Dinonylamino)-1-(5-(N-(2-(dinonylamino)ethyl)-N-nonylglycyl)-2,5-diazabicyclo[2.2.1]heptan-2-yl)ethan-1-one], for which the PDI in data set [1] (setting [3]) is on record as 0.190. Besides, the “Lipid/MC3 Luc CD-1 (mice)” value in data set [2] is recorded as 3.99.
Compound `CCCCCCCCCN(CCCCCCCC(=O)OC)CCN(CCCCCCCC(=O)OC)CC(=O)N1CCN(C(=O)CN(CCCCCCCCC)CCCCCCCCC)CC1` [Compound 48, Methyl 8-((2-(4-(dinonylglycyl)piperazin-1-yl)-2-oxoethyl)(2-((8-methoxy-8-oxooctyl)(nonyl)amino)ethyl)amino)octanoate] came in with a PDI in data set [1] (setting [3]) of 0.099. In addition, the “Lipid/MC3 Luc CD-1 (mice)” value in data set [2] turned out to be 0.01.
Consider `CCCCCCCCCN(CCCCCCCCC)CCN(CCCCCCCC(=O)OC)CC(=O)N1CCN(C(=O)CN(CCCCCCCCC)CCCCCCCCC)CC1` [Compound 47, Methyl 8-((2-(dinonylamino)ethyl)(2-(4-(dinonylglycyl)piperazin-1-yl)-2-oxoethyl)amino)octanoate], for which the PDI in data set [1] (setting [3]) was 0.180. In addition, in data set [2], the “Lipid/MC3 Luc CD-1 (mice)” value was 0.22.
For the compound `CCCCCCCCCCCCCCN(CCCCCCCCCCCCCC)CC(=O)N1CCN(C(=O)CN(CCCCCCCCC)CCN(CCCCCCCCC)CCCCCCCCC)CC1` [Compound 51, 2-((2-(Dinonylamino)ethyl)(nonyl)amino)-1-(4-(ditetradecylglycyl)piperazin-1-yl)ethan-1-one], the PDI in data set [1] (setting [3]) came to 0.190. Moreover, the “Lipid/MC3 Luc CD-1 (mice)” value in data set [2] was found to be 5.22.
Turning to `CCCCCCCCCCCCCCN(CCCCCCCCCCCCCC)CCN(CCCCCCCCCCCCCC)CCN1CCN(CCN(CCCCCCCCCCCC)CCCCCCCCCCCC)CC1` [Compound 31, N^1-(2-(4-(2-(Didodecylamino)ethyl)piperazin-1-yl)ethyl)-N^1,N^2,N^2 tritetradecylethane-1,2-diamine], in data set [1] (setting [3]), the PDI came out at 0.130.
In data set [1] (Table 20-1), `CCCCCCCCCCCCN(CCO)CCN(CCCCCCCCCCCC)CCCCCC(=O)OCCCCCCC` [Compound 20-7, Heptyl 6-(dodecyl(2-(dodecyl(2-hydroxyethyl)amino)ethyl)amino)hexanoate] showed a PDI of 0.170.
`CCCCCCCOC(=O)CCCCCN(CCO)CCN(CCCCCC(=O)OCCCCCCC)CCCCCC(=O)OCCCCCCC` [Compound 20-5, Diheptyl 6,6′-((2-((6-(heptyloxy)-6-oxohexyl)(2 hydroxyethyl)amino)ethyl)azanediyl)dihexanoate] registered a PDI in data set [1] (Table 20-1) of 0.210.
`CCCCCCCCCCCCN(CCCCCCCCCCCC)CCN(CCCCCCCCCCCC)CC(=O)N1CC2CC1CN2C(=O)CN(CCCCCCCCC)CCCCCCCCC` (stereo not shown) [Compound 43, 2-((2-(Didodecylamino)ethyl)(dodecyl)amino)-1-(5-(dinonylglycyl)-2,5-diazabicyclo[2.2.1]heptan-2-yl)ethan-1-one] displayed a PDI in data set [1] (setting [3]) of 0.220. Further, in data set [1] (Table 1, lipid:DOPE:Chol:PEG-DMG 40:20:38.5:1.5, Luc mRNA, MC3 standard formulation), the “Size (nm)” value turned out to be 99.0 nm. The “Lipid/MC3 Luc CD-1 (mice)” value in data set [2] worked out at 0.34.
With `CCCCCCCCCN(CCCCCCCC(=O)OC)CCN(CCCCCCCCC)CC(=O)N1CCN(C(=O)CN(CCCCCCCCC)CCCCCCCCC)CC1` [Compound 46, Methyl 8-((2-((2-(4-(dinonylglycyl)piperazin-1-yl)-2-oxoethyl)(nonyl)amino)ethyl)(nonyl)amino)octanoate], in data set [1] (setting [3]), the PDI is recorded as 0.160. Besides, the “Lipid/MC3 Luc CD-1 (mice)” value in data set [2] turned out to be 0.46.
In data set [1] (Table 20-1, row marked *: formulated with DOPE), `CCCCCCCCCCCCN(CCCCCCCCCCCC)CCN(CCCCCCCCCCCC)CC(=O)O` [Compound 20-1, N-(2-(Didodecylamino)ethyl)-N-dodecylglycine] had a PDI of 0.078.
The compound `CCCCCCCCCCCCCCN(CCCCCCCCCCCCCC)CCN(CCCCCCCCCCCCCC)CCN1CCN(CCN(CCCCCCCCCCCC)CCCCCC(=O)OCCCCC)CC1` [Compound 13, Pentyl 6-((2-(4-(2-((2-(ditetradecylamino)ethyl)(tetradecyl)amino)ethyl)piperazin-1-yl)ethyl)(dodecyl)amino)hexanoate] registered a PDI in data set [1] (setting [3]) of 0.080.
In data set [1] (setting [3]), `CCCCCCCCCN(CCCCCCCCC)CCC(=O)N1CCN(C(=O)CCN(CCCCCCCCC)CCN(CCCCCCCCC)CCCCCCCCC)CC1` [Compound 52, 3-(Dinonylamino)-1-(4-(3-((2-(dinonylamino)ethyl)(nonyl)amino)propanoyl)piperazin-1-yl)propan-1-one] yielded a PDI of 0.100. In data set [2], the “Lipid/MC3 Luc CD-1 (mice)” value amounted to 7.46.
As to `CCCCCCCCCCCCN(CCO)CCN(CCCCCCCCC)CCCCCCCCC` [Compound 20-18, 2-((2-(Dinonylamino)ethyl)(dodecyl)amino)ethan-1-ol], the PDI in data set [1] (Table 20-1) is given as 0.150.
On to `CCCCCCCCCN(CCCCCCCCC)CCN(CCCCCCCCC)CCN1CCNCC1` [Compound 36, N^1,N^1,N^2-Trinonyl-N^2-(2-(piperazin-1-yl)ethyl)ethane-1,2-diamine], for which the PDI in data set [1] (Table 1, marked *: lipid:DSPC:Chol:PEG-DMG 50:10:38.5:1.5) amounted to 0.110.
